Structures can show the parent of a compound that is named as a salt.
Molecular target: T1, recombinant human c-MET kinase enzyme domain (Homo sapiens, UniProt P08581)
T1 construct: Recombinant c-Met kinase domain (amino acids 960-1390); His (N); made in house; host or cells: baculovirus expression system (insect cells; SF21 is named only for the alternative format)
Assay: c-MET receptor tyrosine kinase Homogeneous Time Resolved Fluorescence assay (HTRF)
Assay type: biochemical
Settings: Biological Example 1 and/or Biological Example 2
Source text: Recombinant c-Met kinase domain (amino acids 960-1390) was produced in a baculovirus expression vector as an N-terminal His-tagged fusion protein and purified on a NiNTA column. The resulting purified enzyme was then used in the following c-Met Homogeneous Time Resolved Fluorescence assay (HTRF) to find compounds of the invention and to perform initial activity determinations. Specifically, this assay measures the ability of compounds of the invention to inhibit the phosphorylation of a randomly synthesized, biotinylated heterocopolymeric polypeptide composed of glutamic acid and tyrosine, with an average length of 100 aa. The assay analyzes the amount of phosphorylated polypeptide produced.
The enzymatic phosphorylation of the biotinylated heterocopolymeric polypeptide was performed in a black 384-well plate at ambient temperature in a reaction mixture containing 50 mM HEPES (pH 7.4), 5 mM MgCl2, 5 mM MnCl2, 0.01% Tween-20, and 2 mM DTT, […] recombinant human c-MET kinase enzyme domain, 37 nM biotinylated heterocopolymeric polypeptide composed of glutamic acid and tyrosine, 20 μM ATP, 1% DMSO in the absence or presence of a compound of the invention. The reaction was stopped after a 20-minute incubation by the addition of 80 mM EDTA.
The formation of phosphorylated heterocopolymeric, biotinylated polypeptide was quantified with the HTRF assay technology using an anti-phosphotyrosine antibody, PT66, conjugated to europium cryptate, mixed with a streptavidin-XL665 conjugate. Reduced or inhibited phosphorylation of the heterocopolymeric, biotinylated polypeptide prevents the anti-phosphotyrosine antibody from binding to the peptide, resulting in a loss of energy transfer to the streptavidin-XL665 conjugate.
Following the 384-well enzymatic phosphorylation reaction outlined above, the detection of phosphorylated heterocopolymeric, biotinylated polypeptide was performed by dilution of the stopped reaction mixture 2-fold with 50 mM HEPES (pH 7.0), 500 mM KF, 0.1% BSA, streptavidin-XL665 (20 nM), and anti-phosphotyrosine antibody PT66-crypate conjugate (6.4 ng/well) and incubation for four hours at ambient temperature. Plates were read in an Envision plate reader (PerkinElmer Life and Analytical Sciences, Inc., MA) simultaneously at 620 nm and 665 nm to obtain signal ratios of 665 nm/620 nm. Results of energy transfer were expressed as signal ratios of 665 nm/620 nm. Negative controls were samples without recombinant c-MET or c-MET treated with 100 mM EDTA.
For determination of IC50 values of particular compounds of the invention, eight serially diluted compound concentrations (at 1:3.16 dilution) were used in the assay. Controls without a compound of the invention or with a reference compound were run in parallel in the same assay plate.

T1 sequence (P08581 960-1390): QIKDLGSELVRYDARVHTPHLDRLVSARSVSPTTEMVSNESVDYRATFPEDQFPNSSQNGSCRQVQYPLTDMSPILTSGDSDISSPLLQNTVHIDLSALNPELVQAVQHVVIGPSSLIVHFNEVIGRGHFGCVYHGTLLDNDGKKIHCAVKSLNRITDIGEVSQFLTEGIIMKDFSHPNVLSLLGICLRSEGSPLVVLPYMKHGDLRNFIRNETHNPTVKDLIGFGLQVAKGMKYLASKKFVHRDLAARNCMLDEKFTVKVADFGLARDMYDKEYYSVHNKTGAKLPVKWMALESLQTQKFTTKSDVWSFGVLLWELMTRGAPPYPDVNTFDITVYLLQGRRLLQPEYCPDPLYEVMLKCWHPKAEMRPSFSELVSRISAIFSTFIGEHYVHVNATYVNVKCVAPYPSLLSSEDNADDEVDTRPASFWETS

Compound | IC50
CC1=C(C#N)C(c2ccc3[nH]nc(-c4ccncc4)c3c2)C(C#N)=C(C)N1 [94.2, 1,4-dihydro-2,6-dimethyl-4-[3-(4-pyridinyl)-1H-indazol-5-yl]-3,5-pyridinedicarbonitrile, acetic acid salt] | < 0.1 µM
CNC(=O)c1n[nH]c2ccc(C3C(C#N)=C(C)NC(C)=C3C#N)cc12 [99.1, 5-(3,5-dicyano-1,4-dihydro-2,6-dimethyl-4-pyridinyl)-N-methyl-1H-indazole-3-carboxamide, TFA salt] | < 0.1 µM
CC1=C(C#N)C(c2ccc3[nH]nc(C(=O)NCCN(C)C)c3c2)C(C#N)=C(C)N1 [103.1, 5-(3,5-dicyano-1,4-dihydro-2,6-dimethyl-4-pyridinyl)-N-[2-(dimethylamino)-ethyl]-1H-indazole-3-carboxamide, TFA salt] | < 0.1 µM
CC1=C(C#N)C(c2ccc3[nH]nc(C(=O)NCCCN(C)C)c3c2)C(C#N)=C(C)N1 [106.1, 5-(3,5-dicyano-2,6-dimethyl-1,4-dihydro-pyridin-4-yl)-1H-indazole-3-carboxylic acid (3-dimethylamino-propyl)-amide, TFA salt] | < 0.1 µM
CC1=C(C#N)C(c2ccc3[nH]nc(C(=O)N(C)C)c3c2)C(C#N)=C(C)N1 [114.1, 5-(3,5-dicyano-2,6-dimethyl-1,4-dihydro-pyridin-4-yl)-1H-indazole-3-carboxylic acid dimethylamide, TFA salt] | < 0.1 µM
CCCN1CCN(c2n[nH]c3ccc(C4C(C#N)=C(C)NC(C)=C4C#N)cc23)CC1 [165.1, 2,6-dimethyl-4-[3-(4-propyl-piperazin-1-yl)-1H-indazol-5-yl]-1,4-dihydropyridine-3,5-dicarbonitrile, TFA salt] | < 0.1 µM
CCOC(=O)N1CCN(Cc2n[nH]c3ccc(C4C(C#N)=C(C)NC(C)=C4C#N)cc23)CC1 [167.1, 4-[5-(3,5-Dicyano-2,6-dimethyl-1,4-dihydro-pyridin-4-yl)-1H-indazol-3-ylmethyl]-piperazine-1-carboxylic acid ethyl ester, TFA salt] | < 0.1 µM
COC(=O)c1cccc(C2C(C#N)=C(C)NC(C)=C2C#N)c1 [compound 10, 3-(3,5-dicyano-1,4-dihydro-2,6-dimethyl-4-pyridinyl)-benzoic acid, methyl ester] | 0.1 to 0.5 µM
CNC(=O)c1cccc(C2C(C#N)=C(C)NC(C)=C2C#N)c1 [compound 12, 3-(3,5-dicyano-2,6-dimethyl-1,4-dihydro-pyridin-4-yl)-N-methyl-benzamide, TFA salt] | 0.5 to 2.5 µM
CC1=C(C#N)C(c2cccc(C(N)=O)c2)C(C#N)=C(C)N1 [compound 17, 3-(3,5-dicyano-1,4-dihydro-2,6-dimethyl-4-pyridinyl)-benzamide] | 0.5 to 2.5 µM
CC1=C(C#N)C(c2cccc(C(=O)Nc3cccnc3)c2)C(C#N)=C(C)N1 [compound 21, 3-(3,5-dicyano-1,4-dihydro-2,6-dimethyl-4-pyridinyl)-N-3-pyridinyl-benzamide] | 0.1 to 0.5 µM
CNC(=O)c1cccc(C2C(C#N)=C(C)NC(C)=C2C#N)c1 [compound 22, 3-(3,5-dicyano-1,4-dihydro-2,6-dimethyl-4-pyridinyl)-N-methyl-benzamide] | 0.1 to 0.5 µM
CC1=C(C#N)C(c2cccc(C(=O)NCCc3ccncc3)c2)C(C#N)=C(C)N1 [compound 23, 3-(3,5-dicyano-1,4-dihydro-2,6-dimethyl-4-pyridinyl)-N-[2-(4-pyridinyl)ethyl]-benzamide] | 0.5 to 2.5 µM
CC1=C(C#N)C(c2cccc(C(=O)NCCC3CCNCC3)c2)C(C#N)=C(C)N1 [compound 26, 3-(3,5-dicyano-1,4-dihydro-2,6-dimethyl-4-pyridinyl)-N-[2-(4-piperidinyl)ethyl]-benzamide] | 0.1 to 0.5 µM
CC(=O)Nc1cccc(C2C(C#N)=C(C)NC(C)=C2C#N)c1 [compound 27, N-[3-(3,5-dicyano-1,4-dihydro-2,6-dimethyl-4-pyridinyl)phenyl]-acetamide] | 0.5 to 2.5 µM
CC1=C(C#N)C(c2cccc(C(=O)NCCCn3ccnc3)c2)C(C#N)=C(C)N1 [compound 32, 3-(3,5-dicyano-1,4-dihydro-2,6-dimethyl-4-pyridinyl)-N-[3-(1H-imidazol-1-yl)propyl]-benzamide] | 0.1 to 0.5 µM
COC(=O)Nc1cccc(C2C(C#N)=C(C)NC(C)=C2C#N)c1 [compound 34, [3-(3,5-dicyano-1,4-dihydro-2,6-dimethyl-4-pyridinyl)phenyl]-carbamic acid, methyl ester] | 0.5 to 2.5 µM
CC1=C(C#N)C(c2cccc(NC(=O)c3cccnc3)c2)C(C#N)=C(C)N1 [compound 38, N-[3-(3,5-dicyano-1,4-dihydro-2,6-dimethyl-4-pyridinyl)phenyl]-3-pyridinecarboxamide] | 0.5 to 2.5 µM
CC1=C(C#N)C(c2cccc(C(=O)Nc3ccccn3)c2)C(C#N)=C(C)N1 [compound 43, 3-(3,5-dicyano-1,4-dihydro-2,6-dimethyl-4-pyridinyl)-N-2-pyridinyl-benzamide] | < 0.1 µM
CCOCCCNC(=O)c1cccc(C2C(C#N)=C(C)NC(C)=C2C#N)c1 [compound 45, 3-(3,5-dicyano-1,4-dihydro-2,6-dimethyl-4-pyridinyl)-N-(3-ethoxypropyl)-benzamide] | 0.5 to 2.5 µM
CC1=C(C#N)C(c2cccc(NC(=O)CBr)c2)C(C#N)=C(C)N1 [compound 47, 2-bromo-N-[3-(3,5-dicyano-1,4-dihydro-2,6-dimethyl-4-pyridinyl)phenyl]-acetamide] | 0.5 to 2.5 µM
CC1=C(C#N)C(c2cccc(C(=O)Nc3ccc(C)cn3)c2)C(C#N)=C(C)N1 [compound 51, 3-(3,5-dicyano-1,4-dihydro-2,6-dimethyl-4-pyridinyl)-N-(5-methyl-2-pyridinyl)-benzamide] | 0.1 to 0.5 µM
CC1=C(C#N)C(c2cccc(NC(=O)c3ccncc3)c2)C(C#N)=C(C)N1 [compound 57, N-[3-(3,5-dicyano-1,4-dihydro-2,6-dimethyl-4-pyridinyl)phenyl]-4-pyridinecarboxamide] | 0.5 to 2.5 µM
CC1=C(C#N)C(c2cccc(NC(=O)c3ccccn3)c2)C(C#N)=C(C)N1 [compound 58, N-[3-(3,5-dicyano-1,4-dihydro-2,6-dimethyl-4-pyridinyl)phenyl]-2-pyridinecarboxamide] | 0.1 to 0.5 µM
CC1=C(C#N)C(c2cccc(C(=O)Nc3ccc(C(F)(F)F)cn3)c2)C(C#N)=C(C)N1 [compound 60, 3-(3,5-dicyano-1,4-dihydro-2,6-dimethyl-4-pyridinyl)-N-[5-(trifluoromethyl)-2-pyridinyl]-benzamide] | 0.5 to 2.5 µM
CC1=C(C#N)C(c2cccc(C(=O)Nc3nccs3)c2)C(C#N)=C(C)N1 [compound 61, 3-(3,5-dicyano-1,4-dihydro-2,6-dimethyl-4-pyridinyl)-N-2-thiazolyl-benzamide] | 0.1 to 0.5 µM
CC1=C(C#N)C(c2cccc(C(=O)Nc3cccc(C)n3)c2)C(C#N)=C(C)N1 [compound 62, 3-(3,5-dicyano-1,4-dihydro-2,6-dimethyl-4-pyridinyl)-N-(6-methyl-2-pyridinyl)-benzamide] | 0.5 to 2.5 µM
CC1=C(C#N)C(c2cccc(C(=O)Nc3ccc(N(C)C)cn3)c2)C(C#N)=C(C)N1 [compound 63, 3-(3,5-dicyano-1,4-dihydro-2,6-dimethyl-4-pyridinyl)-N-[5-(dimethylamino)-2-pyridinyl]-benzamide] | 0.1 to 0.5 µM
